The text below walks through data of patent publication USRE38761E1, “Styryl compounds which inhibit EGF receptor protein tyrosine kinase” (Yissum Research Development Company of the Hebrew …, priority 1987, dated 2005).

Read-outs that look alike come from different tables or passages of the source.

In assay [1] the target is T1, EGF receptor (Homo sapiens, UniProt P00533). The experiment in a line: EGF-receptor kinase (PTK) activity inhibition on extracted EGF receptors, poly(GAT) substrate, Dixon analysis. On the set-up: EGF receptors were prepared from A431 cells (obtained from the ATCC) and PTK activity of these receptors was assayed; endogenous in cells; host or cells: A431 cells (ATCC). To be noted: EGF receptors from A431 cells; copoly Glu6Ala3Tyr1 substrate; analysis according to Dixon; read-out: Klnh, dissociation constant of the PTK-inhibitor complex. It counts as biochemical. As for the experimental part: The different KInh values were determined by the analysis according to Dixon.
T1 sequence (P00533 25-1210): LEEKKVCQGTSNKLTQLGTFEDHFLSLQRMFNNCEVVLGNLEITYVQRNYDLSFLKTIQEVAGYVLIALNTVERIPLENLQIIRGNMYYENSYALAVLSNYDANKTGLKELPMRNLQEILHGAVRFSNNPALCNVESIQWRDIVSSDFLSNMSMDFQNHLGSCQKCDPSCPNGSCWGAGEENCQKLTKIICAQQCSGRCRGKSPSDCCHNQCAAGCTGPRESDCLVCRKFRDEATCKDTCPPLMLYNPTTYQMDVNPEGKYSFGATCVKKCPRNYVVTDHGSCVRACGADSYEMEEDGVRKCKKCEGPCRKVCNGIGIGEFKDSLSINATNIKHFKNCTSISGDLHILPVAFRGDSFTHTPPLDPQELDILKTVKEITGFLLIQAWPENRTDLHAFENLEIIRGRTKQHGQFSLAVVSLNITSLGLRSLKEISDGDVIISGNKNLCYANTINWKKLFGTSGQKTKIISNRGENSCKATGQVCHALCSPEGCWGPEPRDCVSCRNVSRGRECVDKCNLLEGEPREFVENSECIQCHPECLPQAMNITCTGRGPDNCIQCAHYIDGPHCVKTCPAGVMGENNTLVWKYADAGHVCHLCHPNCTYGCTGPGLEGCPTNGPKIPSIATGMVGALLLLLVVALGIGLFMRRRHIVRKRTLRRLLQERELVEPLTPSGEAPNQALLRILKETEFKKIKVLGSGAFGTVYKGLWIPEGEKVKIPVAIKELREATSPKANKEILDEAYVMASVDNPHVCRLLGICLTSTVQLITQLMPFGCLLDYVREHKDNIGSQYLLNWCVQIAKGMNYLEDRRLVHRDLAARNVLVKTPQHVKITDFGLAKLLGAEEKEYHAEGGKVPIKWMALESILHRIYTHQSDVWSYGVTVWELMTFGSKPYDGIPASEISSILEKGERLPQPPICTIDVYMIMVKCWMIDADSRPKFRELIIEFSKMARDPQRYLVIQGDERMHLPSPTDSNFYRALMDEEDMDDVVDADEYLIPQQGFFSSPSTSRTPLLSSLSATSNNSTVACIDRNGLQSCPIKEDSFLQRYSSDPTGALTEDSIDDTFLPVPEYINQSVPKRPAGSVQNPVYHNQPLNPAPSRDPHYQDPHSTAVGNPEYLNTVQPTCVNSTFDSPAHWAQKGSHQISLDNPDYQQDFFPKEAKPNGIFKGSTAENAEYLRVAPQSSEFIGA
EGF-receptor purification is based on the procedure of Yarden and Schlessinger. A431 cells are grown in 80 cm^2 bottles in confluency (2×10^7 cells per bottle). The cells are washed twice with PBS and harvested with PBS containing 1.0 mmol EDTA (1 hour at 37° C.), and centrifuged at 600 g for 10 minutes. The cells are solubilized in 1 ml per 2×10^7 cells of cold solubilization buffer (50 mmol Hepes buffer, pH 7.6, 1% Triton X-100, 150 mmol NaCl, 5 mmol EGTA, 1 mmol PMSF, 50 μg/ml aprotinin, 25 mmol benzamidine, 5 μg/ml leupeptin, and 10 μg/ml soybean trypsin inhibitor) for 20 minutes at 4° C. After centrifugation at 100000g for 30 minutes, the supernatant is loaded onto a WGA-agarose column (100 μl of packed resin per 2×10^7 cells) and shaken for 2 hours at 4° C. The unabsorbed material is removed and the resin washed twice with HTN buffer (50 mmol Hepes, pH 7.6, 0.1% Triton X-100, 150 mmol NaCl), twice with HTN buffer containing 1 M NaCl, and twice with HTNG buffer (50 mmol Hepes, pH 7.6, 0.1% Triton X-100, 150 mmol NaCl, and 10% glycerol). The EGF receptor is eluted batchwise with HTNG buffer containing 0.5 M N-acetyl-D-glucosamine (200 μl per […] cells). The eluted material is stored in aliquots at −70° C. and diluted before use with TMTNG buffer (50 mmol Tris-Mes buffer, pH 7.6, 0.1% Triton X-100, 150 mmol NaCl, 10% glycerol).
The concentration of EGF in the assay is 300 nM in a final volume of 40 μl. After 5, 10 or 20 minutes, aliquots of 25 μl are applied onto Whatman 3-mm paper cuttings, which are then soaked in cold 10% TCA containing 0.01 M sodium pyrophosphate. After being washed overnight at 4° C., the paper cuttings are dried and counted, measuring ^32P Cerenkov radiation. […] The EGF response for the poly(GAT) phosphorylation is graphed.

The subject of assay [2] is cells incubated with EGF or serum. The experiment in a line: Inhibition of cell proliferation as measured by inhibition of DNA synthesis ([3H]thymidine incorporation). Format: cell-based. The method, then: Cells were seeded at 1×10^5 cells per well in 24-well Costar dishes pre-coated with human fibronectin (by incubating for 30 minutes at room temperature with 10 μg/0.5 ml/well). The cells were grown to confluence for 2 days. The medium was changed to DMEM containing 0.5 calf serum for 36-48 hours and the cells were then incubated with EGF (Toyobo, New York, N.Y.) (20 ng/ml) or serum (10% calf serum) and different concentrations of the inhibitory compounds. […] TCA precipitable material was quantitated by scintillation counting (C). […]
Cells termed HER 14 and K721A (=DK) were prepared by transfecting NIH3T3 cells (clone 2.2) (From C. Fryling, NCI, NIH), which lack endogenous EGF-receptors, with cDNA constructs of wild-type EGF-receptor or mutant EGF-receptor lacking tyrosine kinase activity (in which Lys 721 at the ATP-binding site was replaced by an Ala residue, respectively). All cells were grown in DMEM with 10% calf serum (Hyclone, Logan, Utah).
(Incorporation of labelled thymidine or its analogues reports DNA synthesis.)

The target of assay [3] is T1, EGF receptor. Particulars: membranes of A431 cells; reported; cited from earlier work.
The mark [4] stands for this setting: [3H]thymidine incorporation halved, cells stimulated with EGF (20 ng/ml), read-out: IC50 - EGF.
Where [5] appears, read: [3H]thymidine incorporation halved, cells stimulated with serum (10% calf serum), read-out: IC50 - FCS.

Consider `COc1cc(C=C(C#N)C#N)cc(O)c1O` [Example 2, 3-methoxy-4,5-dihydroxybenzylidene malononitrile], for which the Ki at EGF receptor [1] worked out at 2.2 ± 0.3 µM.

With `CC(C)(C)c1cc(C=C(C#N)C#N)cc(C(C)(C)C)c1O` [Example 3, 3,5-di-tert butyl-4-hydroxybenzylidene malononitrile], the IC50 (commonly the concentration that inhibits the measured activity by half) turned out to be 0.1 µM in assay [2] (read-out: IC50 - EGF) and 0.2 µM in assay [2] (read-out: IC50 - FCS).

As for `N#CC(C#N)=C(O)c1cc(O)c(O)c(O)c1` [Example 5, α-Hydroxy-3,4,5-trihydroxybenzylidene malononitrile], on EGF receptor [1], the Ki worked out at 4.5 µM.

On to `N#CC(=Cc1ccc(O)c(O)c1)C(N)=O` [Example 6, α-Cyano-3,4-dihydroxycinnamamide], for which the Ki at EGF receptor [1] was determined as 3.5 ± 0.6 µM.

In the case of `N#CC(=Cc1ccc(O)c(O)c1)C(=O)O` [Example 10, α-Cyano-3,4-dihydroxycinnamic acid], the Ki on EGF receptor [1] is 23.6 µM.

Consider `N#CC(C#N)=Cc1ccc(C=O)cc1` [Example 15, 4-Formylbenzylidene malononitrile], for which the Ki on EGF receptor [1] was 20 µM.

Take `N#CC(=Cc1ccc(O)c(O)c1)C(=O)Nc1ccccc1` [Example 25, N-Phenyl-α-cyano-3,4-dihydroxycinnamamide]: the results for the IC50 in assay [2] (setting [4]) and in assay [2] (setting [5]) were 30 µM and 100 µM, respectively.

For `CC(C)(C)c1cc(C=C(C#N)C(N)=S)cc(C(C)(C)C)c1` [Example 26, α-Cyano-β-(3,5-di-tertbutylphenyl)propenethioamide], the figures for the IC50 in assay [2] (setting [4]) and in assay [2] (setting [5]) were 20 µM and 100 µM, respectively.

For `O=CN/C=C/c1cc(O)ccc1O` [erbstatin], on EGF receptor [3], the “inhibition of EGF receptor autophosphorylation” value is “inhibits the autophosphorylation of the EGF receptor”.
